Experimental data taken from BindingDB's records for doi:10.1021/jm050184y (National Taiwan University, 2005).

Target: Replicase polyprotein 1ab (Severe acute respiratory syndrome coronavirus, UniProt P0C6X7)
Assay: SARS-CoV 3CL Protease Inhibition Assay
Settings: pH 7; 25 °C
Method: The effects of compound on enzyme activity were measured by using a fluorogenic peptide cleavage assay. Enhanced fluorescence caused by cleavage of the substrate peptide was monitored at 538 nm with excitation at 355 nm. The Ki measurements were performed at two fixed inhibitor concentrations and various substrate concentrations.

**Q.** How did the IC50 turn out when `O=C(Nc1ccc([N+](=O)[O-])cc1Cl)c1cc(Cl)ccc1O` [5-chloro-N-(2-chloro-4-nitrophenyl)-2-hydroxybenzamide] was run?
**A.** > 50 µM

**Q.** Which results are given for `O=C(C[C@H](O)C(=O)N[C@@H](Cc1ccccc1)C(=O)Nc1ccc([N+](=O)[O-])cc1Cl)N[C@@H](Cc1ccccc1)C(=O)Nc1ccc([N+](=O)[O-])cc1Cl` [(2S)-N,N'-bis[(1S)-1-[(2-chloro-4-nitrophenyl)carbamoyl]-2-phenylethyl]-2-hydroxybutanediamide]?
**A.** IC50: 4 µM; Ki: 3100 nM

**Q.** `Cc1cc(C(=O)N[C@H](C(=O)N[C@@H](Cc2ccccc2)C(=O)N[C@@H](Cc2ccccc2)C(=O)Nc2ccc([N+](=O)[O-])cc2Cl)C(C)C)[n-][o+]1` [(2S)-N-[(1S)-1-{[(1S)-1-[(2-chloro-4-nitrophenyl)carbamoyl]-2-phenylethyl]carbamoyl}-2-phenylethyl]-3-methyl-2-[(5-methyl-1,2-oxazol-3-yl)formamido]butanamide] was tested. Which IC50 did it give?
**A.** 7 µM

**Q.** And the Ki?
**A.** 2900 nM

**Q.** With `Cc1cc(C(=O)N[C@H](C(=O)N[C@@H](Cc2ccccc2)C(=O)N[C@H](C(=O)N[C@@H](Cc2ccccc2)C(=O)Nc2ccc([N+](=O)[O-])cc2Cl)C(C)O)C(C)C)no1` (stereo partly drawn) [N-[(5-methylisoxazol-3-yl)carbonyl]-L-valyl-L-phenylalanyl-L-threonyl-N-(2-chloro-4-nitrophenyl)-L-phenylalaninamide] as the molecule, how does the IC50 read?
**A.** 5 µM

**Q.** And the Ki?
**A.** 1610 nM

**Q.** Which IC50 does the source give for `CC(C)C[C@H](NC(=O)[C@@H](NC(=O)OC(C)(C)C)C(C)C)C(=O)N[C@@H](Cc1ccccc1)C(=O)Nc1ccc([N+](=O)[O-])cc1Cl` [tert-butyl N-[(1S)-1-{[(1S)-1-{[(1S)-1-[(2-chloro-4-nitrophenyl)carbamoyl]-2-phenylethyl]carbamoyl}-3-methylbutyl]carbamoyl}-2-methylpropyl]carbamate] here?
**A.** > 10 µM
